Molecules are shown by their SMILES. Converted amounts (≈) assume the structure as drawn.

For this assay, the system named is HIV-1 (RF). Put plainly: HIV RNA assay: microplate based compound evaluation in HIV-1 infected MT-2 cells. The format is cell-based. Particulars: Human immunodeficiency virus 1, MT2, 72 h; HIV-1 (RF) infected MT-2 cells, 3 days of culture; virus dilutions selected to standardize the inoculum to this value; read-out: IC90 value (concentration of compound required to reduce the HIV RNA level by 90%). The protocol: Plasmid pDAB 72 containing both gag and pol sequences of BH 10 (bp 113-1816) cloned into PTZ 19R was prepared according to Erickson-Viitanen et al. AIDS Research and Human Retroviruses 1989, 5, 577. The plasmid was linearized with Bam HI prior to the generation of in vitro RNA transcripts using the Riboprobe Gemini system 11 kit (Promega) with T7 RNA polymerase. Synthesized RNA was purified by treatment with RNase free DNAse (Promega), phenol-chloroform extraction, and ethanol precipitation. RNA transcripts were dissolved in water, and stored at −70° C. The concentration of RNA was determined from the A260.
Biotinylated capture probes were purified by HPLC after synthesis on an Applied Biosystems (Foster City, Calif.) DNA synthesizer by addition of biotin to the 5′ terminal end of the oligonucleotide, using the biotin-phosphoramidite reagent of Cocuzza, Tet. Lett. 1989, 30, 6287. […]
MT-2 and MTA cells were maintained in RPM 1640 supplemented with 5% fetal calf serum (FCS) for MT-2 cells or 10% FCS for MTA cells, 2 mM L-glutamine and 50 μg/mL gentamycin, all from Gibco. […] Infectious titers of HIV-1 (RF) stocks were 1-3×10^7 PFU (plaque forming units)/mL as measured by plaque assay on MT-2 cells (see below). […]

`Nc1ccn([C@H]2CC[C@@H](CO)O2)c(=O)n1` [ddC, dideoxycytidine]: the IC90 was determined as 0.2 µg/mL (≈ 0.947 µM).
